We go through twelve compounds from US12071415B2, “Carbon monoxide prodrugs for the treatment of medical disorders” (Georgia State University Research Foundation, Inc., priority 2018, dated 2024).

The conditions of data set [1]: pKa of the conjugate acid of the leaving group; no measurement described; cited from earlier work.
Data set [2] can be described thus: CO release profile of the activated charcoal formulation (GC headspace). The format is physicochemical. The note with it: 100 mg method A formulation, 3 mL PBS, 37° C. As to the method:
Activated charcoal comprising Compound 5 (100 mg) that was formulated by method A was put into a GC-headspace vial. PBS (3 mL) preheated to 37° C. was added and the vial was sealed and incubated at 37° C. At different time points, 250 μL of the headspace gas was withdrawn and injected to a gas chromatograph (Agilent 7820) equipped with a RESTEK packed molecular sieve column and a TCD detector. The CO release kinetic and yield were plotted (FIG. 23) based on the CO peak area and calibration curve.

In data set [3] the test system is LPS induced TNF-α production in RAW264.7 cells. Description: Anti-inflammatory assay: TNF-α ELISA in LPS-stimulated RAW264.7 cell culture. The note with it: total 5 hour pretreatment (Compound 5 medium changed every 1 hour 5 times; Compound 7 single addition). The format is cell-based. As for the experimental part: The effect of the compounds of the present invention on CO-associated anti-inflammation activity was studied. Pro-inflammatory cytokine TNF-α in RAW264.7 cell culture upon stimulation by lipid polysaccharide (LPS) from E. coli was tested with ELSA assay. […] Due to the fast release kinetics of Compound 5, a repeated dosage protocol was used. Indicated concentration of Compound 5 was added to the culture medium right before addition to the cell and the fresh-made drug loaded culture medium was changed every 1 hour 5 times. Compound 7 has a longer half-life and therefore a single addition of the drug can fulfill the anti-inflammation effect. A Total 5 hour pretreatment was used throughout the experiments and the reported CO prodrug shown below (Ji, X., et al. Angew Chem Int Ed Engl 2016, 55 (51), 15846-15851) was used as the positive control: […]
(In an ELISA, binding on a coated surface is turned into a signal by an enzyme label.)

A short description of data set [4]: HPLC kinetics of decomposition. The class given is physicochemical. The note with it: 40% acetonitrile in PBS; 60% PBS (40% acetonitrile), 37° C. As to the method: Compound 5 was tested for its rate of decomposition under physiological conditions. The followed samples were injected into the HPLC instrument i) saccharin (200 μM) dissolved in 40% acetonitrile in PBS; and b) incubated solution of the CO-releasing molecule Compound 5 dissolved in 40% acetonitrile in PBS at 37° C. at different time points. A 200 μL aliquot of incubated sample was placed inside a 0.5 mL vial followed by dilution with 200 μL of acetonitrile. The study was performed using the Shimadzu Prominence UFLC with a reversed-phase analytical column (Waters C18 3.5 μM, 4.6×100 mm) at 25° C. The flow rate was set at 1 mL/min. Gradient elution using acetonitrile and deionized water with 0.05% TFA was used to elute out the components of the sample. Elution conditions: 0-7 min 50% to 70% acetonitrile; injection volume 10 μL; detection wavelength of 254 and 280 nm. Experiments were done in triplicate.

Data set [5] can be described thus: RP-HPLC stability study (solid and acetonitrile solution). The class given is physicochemical. The note with it: exposed to ambient light and temperature. The text has this: These prodrugs are also stable as a solution of acetonitrile stored at room temperature for at least seven days.
The subject of another data set is HeLa cells. Description: CCK-8 cytotoxicity assay. The format is cell-based. The note with it: 0-100 μM, 1% DMSO in DMEM, 24 hours. As for the experimental part:
For the CCK-8 assay, HeLa cells were cultured in DMEM (Dulbecco's Modified Eagle's Medium) supplements with 10% fetal bovine serum (MidSci; SO1520HI) and 1% penicillin-streptomycin (Sigma-Aldrich; P4333) at 37° C. with 5% C02. Fresh medium was replenished every other day. The cells were treated with the compounds (0-100 μM) using 1% DMSO in DMEM for 24 hours.

Another data set relates to deoxy-myoglobin. Description: Two-compartment CO-myoglobin (Mb-CO) assay. The class given is physicochemical. The note with it: DMSO/PBS, 37° C., 25 minutes.
Data set [6] can be described thus: Quantitative CO analysis by GC with thermal conductivity detector. The class given is physicochemical. The note with it: 37° C.; for CO release yield: 4 to 1 acetonitrile: water, 1 h (FIG. 10); for CO yield, effect of pH: pH 1, pH 3 and pH 7.4 buffers in ACN:H2O (4:1), 1 hour (FIG. 11, 12). As to the method:
An Agilent […] GC System equipped with a thermal conductivity detector was used to detect and quantify CO release yield of the CO prodrugs. Using a gas tight syringe, specific volumes of the headspace of 20-mL headspace vials were sampled and transferred to the injector port maintained at 125° C. Helium was used as the carrier gas with a flow rate of 30 mL/min. Gaseous components of the headspace were separated by passing through a packed column with 60/80 Carboxen-1000 matrix support, […] (4.6 m)×1⁄8 in.×2.1 mm (Supelco). The column was heated 35° C. for 5 min then 225° C. at 20° C./min while the detector was held at 125° C.

The nature of data set [7]: LC-MS determination of oxalic acid (CO vs non-CO producing pathways). The note with it: from a 200-μM sample. The format is physicochemical. As to the method: LC-MS Studies: CO Production Vs Non-CO Producing Pathways The LCMS analysis was performed on an Agilent 1200 HPLC and 3200 API triple quadrupole mass spectrometer with electrospray ionization source in a negative mode. Selected ion mode was used for the detection of ions at m/z 182 for saccharin and m/z 89 for oxalic acid. A 5 uL of sample solution (compound 5) was directly delivered to the mass spectrometer ionization source with an Agilent autosampler and HPLC by mixing with 1% ACN in water mobile phase at 200 uL/min flow rate. No column was used. Three minutes were recorded and the peak area was integrated and the peak are ratio of PA (Oxalic acid)/PA(Saccharin) vs Concentration ratio (C(Saccharine)/C(Oxalic acid) was plotted as standard curve. The linear regression equation was generated for the calculation of the ratio of unknowns.

Data set [8] can be described thus: Saturation adsorption assay on activated charcoal. The format is physicochemical. The note with it: in 10 mg activated charcoal, ACN, 25° C. As for the experimental part:
A saturation adsorption assay was used to determine the adsorption capacity of the Compound 5 on activated charcoal. Compound 5 was dissolved in anhydrous ACN to form calibration samples with a concentration range from 0.019 to 0.3 mg/ml. The absorbance at 280 nm was measured with a UV-Vis spectrometer and plotted against the concentration to give the calibration curve (FIG. 21).
At room temperature (25° C.), 1-6 mg Compound 5 was mixed with 10 mg of activated charcoal and then 0.5 ml ACN was added. The mixture was shaken for 1 h followed by centrifuging at 12000×g for 5 min and the supernatant was diluted by 50 folds with ACN and measured with UV/Vis spectrometer at 280 nm to get the Compound 5 concentration in the supernatant. Adsorbed mass of Compound 5 was calculated by Formula I: Adsorbed mass=(Initial mass)−0.5*(supernatant concentration) (Formula I) Adsorbed mass=Y0+(Plateau-Y0)*(1−e^kX) (Formula II)

Data set [9] in a line: COP-1 fluorescent probe evaluation of CO release. The class given is physicochemical. As to the method: COP-1, a CO probe that is commonly employed in the literature to detect CO was used to evaluate the ability of different oxalyl-based compounds to release CO under aqueous solution at room temperature. Chloride was replaced with various leaving groups having different pKa values to survey the effect of pKa on CO release.
To a solution of the CO probe COP-1 (0.5 μM) in 3% DMSO in PBS, a solution of 1,2-bis(1,1-dioxido-3-oxobenzo[d]isothiazol-2(3H)-yl)ethane-1,2-dione in DMSO was added to form a 100 μM final solution concentration. The resulting mixture was incubated at 37° C., and the fluorescence emission intensity was recorded at different time points from […] with an excitation wavelength of 475 nm.

A short description of data set [10]: NMR CO release experiments for formyl compounds. The format is physicochemical. The note with it: deuterated PBS or 20% DMSO-d6 in deuterated PBS; determined indirectly from ratio of formic acid formed. As for the experimental part:
Compounds 1-4 were tested for their CO release by NMR. Each compound was placed in deuterated PBS or 20% DMSO-d6 in deuterated PBS. CO release yield was indirectly determined by calculating the ratio of formic acid formed as a by-product of the competing hydrolysis reaction.

A word on the pKa: it is the pH at which an ionisable group is half protonated. As for `O=C(C(=O)N1C(=O)c2ccccc2S1(=O)=O)N1C(=O)c2ccccc2S1(=O)=O` [drawing 150], the pKa in [1] is listed as 1.6.

In general, half-life refers to how long it takes for the measured level to halve. Regarding `O=C(C(=O)N1C(=O)c2ccccc2S1(=O)=O)N1C(=O)c2ccccc2S1(=O)=O` [Compound 5, 1,2-Bis(1,1-dioxido-3-oxobenzo[d]isothiazol-2(3H)-yl)ethane-1,2-dione], the “total CO release yield” value in data set [2] is recorded as 81%. In data set [3], the “LPS induced TNF-α production” value was “inhibit LPS induced TNF-α production in a dose-dependent manner”. This compound also showed a half-life in data set [4] of 1.28 ± 0.03 min. Further, the “stable as a solid” value in [5] was “at least 24 days”. Besides, the “toxicity to HeLa cells (cell survival)” value in the data set with HeLa cells was “no toxicity to HeLa cells up to a 100 μM concentration”. Also, the “formation of CO-myoglobin (UV-Vis spectral signature)” value (from here on “formation of CO-myoglobin”) in the data set on deoxy-myoglobin is reported as “showed the characteristic spectral signature for the formation of CO-myoglobin”. In addition, in data set [6], the CO release yield was 76%±6 and the “CO yield, effect of pH” value was 60% to 30%. Moreover, in data set [7], the “CO production estimated from oxalic acid” value was “about 75%” and the oxalic acid produced came to 47 µM. Moreover, in data set [8], the “maximum adsorption amount on activated charcoal (plateau)” value worked out at 1.73 mg. For the same compound, the “increase in fluorescence intensity with the COP-1 probe” value in data set [9] (after 3 h (FIG. 5), 100 μM compound, 0.5 μM COP-1, 3% DMSO in PBS, 37° C.) is 4 fold.

As for `CC1=CC(=O)N(C(=O)C(=O)N2C(=O)C=C(C)OS2(=O)=O)S(=O)(=O)O1` [Compound 7, 1,2-Bis(6-methyl-2,2-dioxido-4-oxo-1,2,3-oxathiazin-3(4H)-yl)ethane-1,2-dione], in [3], the “LPS induced TNF-α production” value is on record as “inhibit LPS induced TNF-α production in a dose-dependent manner”. Further, the half-life in data set [4] was found to be 9.5 ± 0.1 min. In the data set with deoxy-myoglobin, the “formation of CO-myoglobin” value was “showed the characteristic spectral signature for the formation of CO-myoglobin”. In data set [6], the CO release yield is 92%±3 and the “CO yield, effect of pH” value is recorded as “around 90%”.

For the compound `O=C(Oc1c(Cl)cc(Cl)cc1Cl)C(=O)Oc1c(Cl)cc(Cl)cc1Cl`, in data set [1], the pKa is reported as 6.23.

For the compound `O=C(C(=O)N1C(=O)c2ccccc2C1=O)N1C(=O)c2ccccc2C1=O`, in [1], the pKa is recorded as 8.3.

As for `CC(C)(C)OC(=O)C(=O)N1C(=O)c2ccccc2S1(=O)=O` [Compound 8, tert-Butyl 2-(1,1-Dioxido-3-oxobenzo[d]isothiazol-2(3H)-yl)-2-oxoacetate], in data set [6], the CO release yield entry was “No CO nor CO2 were detected”. Further, in data set [6] (ACN:H2O (4:1), 1 hour (FIG. 10)), the CO2 yield result is “No CO nor CO2 were detected”.

With `C[N+](C)=c1ccn(C=O)cc1.[Br-]` [Compound 4, N-(1-Formylpyridin-4(1H)-ylidene)-N-methylmethanaminium Bromide], the “CO Release Yield (%)” value in [10] was 34%.

In the case of `O=C(C(=O)n1ccnc1)n1ccnc1`, in [1], the pKa was 14.5.

In the case of `Cc1nn(C=O)c(=S)s1` [Compound 2, 5-Methyl-2-thioxo-1,3,4-thiadiazole-3(2H)-carbaldehyde], the “formation of CO-myoglobin” value in the data set with deoxy-myoglobin is “showed the characteristic spectral signature for the formation of CO-myoglobin”. In addition, the “increase in fluorescence with the COP-1 probe” value in data set [9] (after 10 minutes of incubation (FIG. 4)) is given as 2.3 fold. Besides, the “CO Release Yield (%)” value in data set [10] is 33%.

Consider `CS(=O)(=O)N(C(=O)C(=O)N(C(=O)c1ccccc1)S(C)(=O)=O)C(=O)c1ccccc1` [Compound 9, N^1,N^2-Dibenzoyl-N^1,N^2-bis(methylsulfonyl)oxalamide], for which the CO release yield result in data set [6] is reported as “no CO was detected”.

Take `O=Cn1ccccc1=O` [Compound 3, 2-Oxopyridine-1(2H)-carbaldehyde]: the “CO Release Yield (%)” value in data set [10] is reported as 20%.

Consider `O=CN1C(=O)c2ccccc2S1(=O)=O` [Compound 1, 3-Oxobenzo[d]isothiazole-2(3H)-carbaldehyde 1,1-dioxide], for which the “CO Release Yield (%)” value in data set [10] was 20%.
